Data reported in patent US20050187194A1, “Preventive agents for diabetes mellitus” (SANKYO COMPANY LIMITED, priority 2002, published 2005).

Columns and labels:
patients = patients treated with metformin; N Engl J Med 346, 393-403 (2002); cited from earlier work
GK rats [1] = assay: Preventative effects on diabetes mellitus in GK rats prior to the crisis of diabetes (drug mixed in food, 8 weeks); format: in vivo, rat
Text: 6-week-old GK rats (Charles River Japan, Inc.) which were prior to the crisis of diabetes mellitus, were used. Compound A was mixed with food powder for the rat (F2, Funabashi Farm Co.,) at concentrations of 0.04%, 0.2% and 1.0% (w/w) and was orally administered to 4-6 rats per group for 8 weeks ad libitum (the mean amount of food intake per rat: 17.3 g/day).
The rats in the control group were fed with only food powder.
Blood from each rat was collected from the tail vein every 2 weeks, and the blood glucose level, plasma lactate level and plasma triglyceride level were determined. Blood glucose level was determined by electric potential measurement method based on glucose oxidase immobilized electrode using Glucoloader GXT (A&T Corp.). Plasma lactate level was determined using a spectrophotometric method with Lactate Reagent (Sigma-Aldrich Japan K. K.), and plasma triglyceride level was determined using a spectrophotometric method with Triglyceride E Test Wako (Wako Pure Chemical Industries, Ltd.). When the blood was collected after the drug administration period and the drug withdrawal period for 2 weeks, glycosylated hemoglobin ratio was also determined with DCA-2000 (Bayer Medical Co., Ltd.).

GK rats [2] = assay: Improving effects on impaired glucose tolerance: oral glucose load in fasted GK rats, AUC of blood glucose; format: in vivo, rat; conditions: 2 g/kg glucose 1 hour later
Experimental: 6-week-old GK rats of (Charles River Japan, Inc.) which show IGT symptoms, but not diabetes mellitus, were fasted overnight. Compound A was orally administered at dosages of 10, 20 or 40 mg/kg. Two gram per kilogram of 50% (w/w) glucose solution was orally administered 1 hour after the administration of Compound A. The rats in the control group were administered orally 2 g/kg of 50% (w/w) glucose solution only.
The blood was collected from the tail vein just before and 0.5, 1, 2 and 4 hours after the glucose administration. Blood glucose level was determined by electric potential measurement method based on a glucose oxidase immobilized electrode using Glucoloader GXT (A&T Corp.).
On the abscissas, the time after the administration of Compound A was plotted, and on the ordinate, the blood glucose level of each individual was plotted. Each point was drawn with a straight line. The areas under the curves (AUCs) for the blood glucose levels of the graph obtained were calculated.
Using the areas under the curves (AUCs) for the blood glucose levels, the average value and standard error of each group were calculated. […]
The blood was collected from the tail vein just before and 0.5, 1 and 2 hours after the glucose administration. Blood glucose level was determined by electric potential measurement method based on a glucose oxidase immobilized electrode using Glucoloader GXT (A&T Corp.). […]

CN(C)C(=N)N=C(N)N [metformin]
patients with gastrointestinal symptoms such as diarrhea (patients): approximately 80%

CCOC(=O)[C@H](C)NP(=O)(N[C@@H](C)C(=O)OCC)c1ccc(-c2nc(N)sc2CC(C)C)o1 [Compound A, 2-amino-5-isobutyl-4-{2-[5-(N,N′-bis((S)-1-ethoxycarbonyl)ethyl)phosphonamido]furanyl}thiazole]
increase in the blood glucose level (GK rats [1]; 6-week-old GK rats, 0.04%, 0.2% and 1.0% (w/w) in food, oral, 8 weeks, FIG. 1): inhibited in a dose-dependent manner
glycosylated hemoglobin ratio (GK rats [1]; GK rats, after 8 weeks of 0.04%, 0.2% and 1.0% (w/w) in food, FIG. 2): decreased in a dose-dependent manner
gastrointestinal symptoms such as diarrhea (GK rats [1]; GK rats, all the groups examined): no animal suffered gastrointestinal symptoms such as diarrhea
blood glucose level after the drug administration period was terminated (GK rats [1]; GK rats, drug withdrawal period 2 weeks, FIG. 1): attained the same maximum level as that in the control group
glycosylated hemoglobin ratio after withdrawal of administration (GK rats [1]; GK rats, drug withdrawal period 2 weeks, FIG. 2): increased to the same level as that in the control group
plasma triglyceride level (GK rats [1]; GK rats, during the administration period, FIG. 3): not increased as much as those in the control rats or was prevented from increase
plasma lactate level (GK rats [1]; GK rats, during the administration period, versus control group, FIG. 4): not significantly different from the control group
AUCs of the blood glucose levels (GK rats [2]; GK rats fasted overnight, 10, 20 or 40 mg/kg oral, blood to 4 hours, FIG. 5): decreased by the treatment of Compound A in a dose-dependent manner

CCOc1cc2ncnc(Nc3cccc(-c4csc(C)n4)c3)c2cc1OCC [Compound B, (6,7-diethoxy-quinazolin-4-yl)-[3-(2-methyl-thiazol-4-yl)phenyl]amine]
AUCs of the blood glucose levels (GK rats [2]; GK rats fasted overnight, 100 mg/kg or 300 mg/kg oral, blood to 2 hours, FIG. 6): decreased by the treatment of Compound B in a dose-dependent manner
